Test results: publication PMC4893161, “The Dynamic Localization of Cytoplasmic Dynein in Neurons Is Driven by Kinesin-1” (Neuron, 2016)

Tests used:
[1] = test system: anterograde transport of dynein-GFP in axons of primary hippocampal neurons; experiment: Slow axonal transport photobleaching assay (dynein-GFP midpoint displacement); assay type: cell-based, mouse; settings: for mean velocity of dynein-GFP displacement / mean velocity of dynein-GFP: 3 cultures; for mean velocity of dynein-GFP: 500 ng peptide complexed with Chariot reagent, pre-treated 45–60 min; for mean velocity of dynein-GFP / kymographs with no or retrograde bias: n = 27 (control) and 29 (DIC1a) axons
Experimental: Primary hippocampal neurons from dynein-GFP mice were cultured for 8–10 DIV in 900 μm microfluidic devices in order to image single axons of known polarity. Post bleach motility was imaged for 60 s at 0.5 fps. A line scan was made for every frame of the time series, then movement of the photo-protected dynein-GFP pool was quantified by defining retrograde and anterograde edges at the half-maximal fluorescence value and tracking the displacement of the midpoint (Figure 6B). The peak of fluorescence intensity decreased with time as the dynein-GFP pool shifted in both anterograde and retrograde directions. However, the relative midpoint could be seen moving with a clear bias in the anterograde direction for several seconds (Figure 6C), particularly when overlaid onto the more standard kymograph representation of axonal transport (Figure 6D). […] By fitting a linear regression to each relative midpoint position over time, we observed anterograde velocities ranging from 0.01 to 0.1 μm/s. However, ∼80% of events were in the 0.01 to 0.05 μm/s range or approximately 1–5 mm a day. All net anterograde velocities were consistent with known speeds of slow axonal transport of cytoplasmic dynein in vivo ([Dillman et al., 1996a], [Dillman et al., 1996b]).
First, we tested whether the anterograde transport of dynein was microtubule dependent, using nocodazole (final concentration 30 μM) to depolymerize microtubules. Every viable isolated axon (see Experimental Procedures) within the microgrooves of the chamber was imaged following the bleaching protocol described above. The relative position of the midpoint for each kymograph was calculated (see Figure 7A for examples) and the mean midpoint displacement ± SEM was plotted for all axons (Figure 7B). […] To establish a mean velocity for dynein-GFP, we fitted each midpoint shift with a linear regression.
To directly test our hypothesis that interactions between dynein and kinesin-1 are required for the anterograde transport of dynein in the axon, we designed a peptide to block the interaction between DIC1 and KLC. We chose a 19-amino-acid-long sequence centered on the tryptophan in WD1 of DIC1a. […] Hippocampal neuronal cultures were pre-treated for 45–60 min with either DIC1a or control peptide, complexed with Chariot reagent for delivery across the plasma membrane. […] Consequently, the anterograde transport of dynein-GFP in the axon is critically dependent on the interaction between dynein subunit DIC1a and the KLCs of kinesin-1.
Live cell imaging of hippocampal cultures was performed in Hibernate E low fluorescence medium in a humidified temperature controlled (37°C) live cell chamber, on an Ultraview Vox (PerkinElmer) dual-imaging system mounted on an inverted Nikon Ti microscope with either 100× or 60× apochromat 1.49 NA oil-immersion objectives (Nikon), fully controlled by Volocity software (PerkinElmer). FRAP and slow axonal transport imaging used the spinning-disk confocal with an Ultraview Photokinesis unit for bleaching and a C9100-50 EM-CCD (Hamamatsu) camera. Near-TIRF imaging used the Nikon TIRF system with an EM-CCD C9100-13 camera (Hamamatsu). Image analysis was performed in FIJI ([Schindelin et al., 2012]) with follow up analysis in R (RStudio). Specifics for each experiment are listed in the Supplemental Experimental Procedures. […]
Slow axonal transport imaging and drug treatments
Axons were imaged with a 100X objective (Nikon). Acquisition speed was 1 frame every two seconds.
For Nocodazole and Taxol drug treatments, […] and 200 nM respective final concentrations were added
to each well of the microfluidic chamber in imaging media (Hibernate E Low Fluorescence media) 45-60
minutes prior to imaging, with hydrostatic pressure across the microgrooves of the microfluidic device to
ensure drugs reached the axons within the grooves.
Peptides were supplied by GenScript, and sequences are VCFYLLLQTWVFPYTHDLH and
LVQPLHFLTWDTCYFHYLV for Control and DIC1a-WD1 peptides respectively. […]

[2] = test system: EB3 comets in the axon; experiment: EB3-mCherry comet density in axons; assay type: cell-based, mouse; settings: taxol 200 nM, 45-60 min pre-treatment, mean; DMSO control 0.12; p = 0.008
Experimental: Figure S5. Related to Figure 7.
The slow anterograde transport of dynein in the axon is not dependent on dynamic microtubules.
(A) Taxol treatment reduces the density of EB3 comets in the axon. Example kymographs (left) and quantification (right) of
EB3-mCherry comet density in DMSO control and taxol treated axons. Pre-treatment with taxol (200 nM final concentration) for
45-60 minutes prior to imaging reduces the density of EB3 comets in the axon from 0.12 to 0.03 comets/µm/min. Heavy line =
mean, box = sem, grey dots = individual axons. Axons were imaged at 1 frame per second for 3 minutes using live cell spinning
disk confocal microscopy. […]
neurons showing relative positions of anterograde and retrograde intercept (blue) and the calculated midpoint displacement […]
spots are the velocities for each measured kymograph with colour indicating the overall direction of the midpoint displacement. […]
Taxol mean velocity 0.020±0.004 µm/s. p value calculated by a two-sample t-test. […]
Cells were imaged with 60X objective with near-TIRF illumination to eliminate excessive fluorescence […]
every ten minutes, with stage position controlled by Velocity software. For quantification, a threshold was […]
the movie and integrated density of each neurite was measured over time. […]
to each well of the microfluidic chamber in imaging media (Hibernate E Low Fluorescence media) 45-60 […]

[3] = test system: KLC1TPR; experiment: Fluorescence polarization competition assay with TAMRA-labeled WD1pept; assay type: binding; settings: 300 nM TAMRA-DICWD1 and 25 µM KLC TPR (approx. 70% saturation), increasing unlabeled peptide, Figure S3D; typically in triplicate
Experimental: Measurements were performed as previously described ([Pernigo et al., 2013]) with modifications as listed in Supplemental Experimental Procedures. […]
Log unlabelled peptide [nM]
Figure S3. Related to Figure 3.
(A-C) Isoforms of the mouse cytoplasmic dynein intermediate chain, based on data from (Kuta et al., 2010). The splice forms of DIC1 (A) and DIC2 (B) from the genes Dync1i1 and Dync1i2 respectively, relative to the longest isoform of each with key structural elements indicated: coiled coil required for NudE and p150 binding (McKenney et al., 2011; Nyarko et al., 2012); binding sites of the dynein light chains Tctex (Mok et al., 2001), LC8 (Lo et al., 2001) and Roadblock (Susalka et al., 2002); WD repeats 1-7 of the WD40 domain. Sequence alignments of all DIC isoforms centred on the two alternatively spliced regions: AS Loop 1 and AS Loop 2 (C). […]
(D) In a fluorescence polarization competition assay, TAMRA-labeled WD1pept bound to KLC1TPR is competed off with both unlabeled SKIPWD (with a single tryptophan motif) or a longer peptide encompassing both motifs (SKIPWDWE). […]
Fluorescence polarization measurements […]
[…] All fluorescence polarization (FP) measurements were carried out on a BMG Labtech PolarStar Omega plate reader at 20 °C by incubating 300 nM TAMRA-labeled peptides with His6-tagged KLC2TPR at increasing concentrations in 25 mM Hepes pH 7.5, 150 mM NaCl, 5 mM β-mercaptoethanol. […]

[4] = 500 ng peptide with Chariot reagent, mean ± SEM
[5] = 500 ng peptide with Chariot reagent

CC(=O)O[C@H]1C(=O)[C@@]2(C)[C@H]([C@H](OC(=O)c3ccccc3)[C@]3(O)C[C@H](OC(=O)[C@H](O)[C@@H](NC(=O)c4ccccc4)c4ccccc4)C(C)=C1C3(C)C)[C@]1(OC(C)=O)CO[C@@H]1C[C@@H]2O [Taxol, taxol]
mean velocity of dynein-GFP displacement ([1]; taxol 200 nM, 45-60 min pre-treatment, mean ± sem, n = 39 axons, DMSO 0.023±0.005 µm/s, p = 0.6 two-sample t-test): 0.020±0.004 µm/s | inhibition of anterograde bias of dynein transport ([1]; taxol 200 nM, Figures S5B–S5D): no inhibition in the anterograde bias of dynein transport | density of EB3 comets in the axon [2]: 0.03 comets/µm/min

STNLEWDDSAIAPSSEDYDFGDVFPAVPSTPR VPSTDWEDGDL [SKIPWDWE, longer SKIP peptide encompassing both motifs]
competition of WD1pept [3]: longer and higher affinity SKIPWDWE peptide doing so more efficiently

COC(=O)Nc1nc2ccc(C(=O)c3cccs3)cc2[nH]1 [Nocodazole, nocodazole]
net motility / anterograde bias ([1]; nocodazole, final concentration 30 μM, Figures 7A and 7B): abrogated the anterograde bias in transport seen in DMSO control neurons, with no net motility in either the anterograde or retrograde direction | mean velocity of dynein-GFP displacement ([1]; nocodazole, final concentration 30 μM, linear regression, mean ± SEM, n = 22 axons, DMSO control 0.018 ± 0.005 μm/s): –0.001 ± 0.005 μm/s

LVQPLHFLTWDTCYFHYLV [DIC1a peptide]
mean velocity of dynein-GFP ([1]; all kymographs, mean ± SEM): 0.012 ± 0.005 μm/s | anterograde bias of dynein-GFP transport ([1]; 500 ng peptide with Chariot reagent, Figure 7E): substantial reduction in the anterograde bias of dynein-GFP transport | reduction of mean dynein-GFP velocity versus control peptide ([1]; 500 ng peptide with Chariot reagent, all kymographs): over 50% | mean velocity of anterograde only kymographs [1, 4]: 0.029 ± 0.003 μm/s | kymographs with no or retrograde bias [1, 5]: 38% | kymographs showing anterograde velocities over 0.05 μm/s ([1]; 500 ng peptide with Chariot reagent, n = 29 axons): complete loss

VCFYLLLQTWVFPYTHDLH [control peptide]
mean velocity of dynein-GFP ([1]; all kymographs, mean ± SEM): 0.029 ± 0.005 μm/s | mean velocity of anterograde only kymographs [1, 4]: 0.036 ± 0.004 μm/s | kymographs with no or retrograde bias [1, 5]: 15% | kymographs with anterograde velocity over 0.05 μm/s ([1]; 500 ng peptide with Chariot reagent, n = 27 axons (control)): 22%

STNLEWDDSAI [SKIPWD, unlabeled SKIP peptide with a single tryptophan motif]
competition of WD1pept [3]: compete off WD1pept in a concentration dependent manner
